Read-outs that look alike come from different tables or passages of the source.
Legend:
[1] = test system: basolateral amygdala neurons; assay: Slice recordings of CCK-4 induced EPSCs; format: cell-based, mouse
in vitro = conditions: plasma
PCP = format: binding, rat; conditions: 1.0E-06 M
κ (KOP) = κ (KOP) (Rattus norvegicus, UniProt P34975); assay: biochemical
Y1 (h) = target: T1, Y1 (h) (Homo sapiens, UniProt P25929); format: binding; conditions: 1.0E-06 M
T1 construct: (endogenous); host or cells: SK-N-MC cells
T1 sequence (P25929 1-384): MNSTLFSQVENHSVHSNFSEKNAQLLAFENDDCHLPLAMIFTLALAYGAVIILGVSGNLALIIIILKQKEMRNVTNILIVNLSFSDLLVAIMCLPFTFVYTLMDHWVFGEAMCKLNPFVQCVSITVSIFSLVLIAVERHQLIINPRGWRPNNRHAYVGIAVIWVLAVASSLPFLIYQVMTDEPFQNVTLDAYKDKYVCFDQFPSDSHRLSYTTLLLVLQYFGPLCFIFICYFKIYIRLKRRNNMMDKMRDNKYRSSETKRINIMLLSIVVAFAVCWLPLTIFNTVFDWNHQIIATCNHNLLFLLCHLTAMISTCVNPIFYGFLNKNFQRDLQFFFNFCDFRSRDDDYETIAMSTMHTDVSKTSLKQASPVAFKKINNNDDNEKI

5-HT1B = 5-HT1B (Rattus norvegicus, UniProt P28564); assay: biochemical
Sequence of 5-HT1B (P28564 whole entry): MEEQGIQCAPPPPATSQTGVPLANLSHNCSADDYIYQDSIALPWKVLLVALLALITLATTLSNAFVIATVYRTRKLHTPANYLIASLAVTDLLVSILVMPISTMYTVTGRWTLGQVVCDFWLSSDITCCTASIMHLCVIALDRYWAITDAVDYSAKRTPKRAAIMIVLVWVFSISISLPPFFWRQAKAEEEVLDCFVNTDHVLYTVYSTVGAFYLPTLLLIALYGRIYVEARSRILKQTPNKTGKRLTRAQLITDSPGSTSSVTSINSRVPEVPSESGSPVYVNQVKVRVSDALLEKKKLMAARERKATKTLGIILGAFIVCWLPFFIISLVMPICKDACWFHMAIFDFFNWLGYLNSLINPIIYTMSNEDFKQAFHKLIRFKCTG

CaMK2α (h) = CaMK2α (h) (Homo sapiens, UniProt Q9UQM7); assay: enzyme assay; format: biochemical; conditions: 1.0E-06 M
[2] = test system: Ca2+ channel (L, verapamil site) (phenylalkylamine); format: binding, rat; conditions: 1.0E-06 M
rolipram = format: binding, mouse; conditions: 1.0E-06 M
[3] = test system: sigma (non-selective) (h); format: binding, human; conditions: 1.0E-06 M
Abl kinase (h) = Abl kinase (h) (Homo sapiens, UniProt P00519); assay: biochemical; conditions: 1.0E-06 M
Sequence of Abl kinase (h) (P00519 whole entry): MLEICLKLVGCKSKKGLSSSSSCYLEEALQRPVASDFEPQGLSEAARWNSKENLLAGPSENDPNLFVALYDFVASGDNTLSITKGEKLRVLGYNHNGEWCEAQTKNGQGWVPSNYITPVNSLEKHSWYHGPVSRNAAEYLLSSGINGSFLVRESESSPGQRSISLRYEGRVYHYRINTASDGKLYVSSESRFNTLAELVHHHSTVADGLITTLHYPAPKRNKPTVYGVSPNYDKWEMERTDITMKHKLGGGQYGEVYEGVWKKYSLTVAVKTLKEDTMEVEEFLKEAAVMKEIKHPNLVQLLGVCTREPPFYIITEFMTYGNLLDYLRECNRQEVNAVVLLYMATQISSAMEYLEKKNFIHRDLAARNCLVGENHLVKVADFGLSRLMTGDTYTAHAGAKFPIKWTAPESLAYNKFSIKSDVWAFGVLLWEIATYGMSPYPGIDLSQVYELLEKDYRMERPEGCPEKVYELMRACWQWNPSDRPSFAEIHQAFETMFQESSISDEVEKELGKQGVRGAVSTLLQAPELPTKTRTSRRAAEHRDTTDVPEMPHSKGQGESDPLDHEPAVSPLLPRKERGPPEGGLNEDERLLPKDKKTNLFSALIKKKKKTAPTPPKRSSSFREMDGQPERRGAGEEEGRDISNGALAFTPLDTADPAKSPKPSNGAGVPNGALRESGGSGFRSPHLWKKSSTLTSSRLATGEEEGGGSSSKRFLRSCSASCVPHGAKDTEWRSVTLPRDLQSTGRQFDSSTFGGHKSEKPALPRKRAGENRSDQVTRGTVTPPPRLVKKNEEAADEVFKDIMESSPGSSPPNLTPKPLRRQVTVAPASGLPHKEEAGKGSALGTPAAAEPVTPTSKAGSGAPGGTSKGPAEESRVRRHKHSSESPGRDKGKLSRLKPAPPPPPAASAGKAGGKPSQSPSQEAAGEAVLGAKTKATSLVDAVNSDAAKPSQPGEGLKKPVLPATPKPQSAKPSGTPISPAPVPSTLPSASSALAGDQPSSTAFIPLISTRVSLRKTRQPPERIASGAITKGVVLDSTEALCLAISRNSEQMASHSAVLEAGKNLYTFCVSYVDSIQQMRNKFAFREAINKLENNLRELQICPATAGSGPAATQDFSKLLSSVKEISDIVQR

A1 (h) = target: T2, A1 (h) (Homo sapiens, UniProt P30542); format: binding
T2 sequence (P30542 1-326): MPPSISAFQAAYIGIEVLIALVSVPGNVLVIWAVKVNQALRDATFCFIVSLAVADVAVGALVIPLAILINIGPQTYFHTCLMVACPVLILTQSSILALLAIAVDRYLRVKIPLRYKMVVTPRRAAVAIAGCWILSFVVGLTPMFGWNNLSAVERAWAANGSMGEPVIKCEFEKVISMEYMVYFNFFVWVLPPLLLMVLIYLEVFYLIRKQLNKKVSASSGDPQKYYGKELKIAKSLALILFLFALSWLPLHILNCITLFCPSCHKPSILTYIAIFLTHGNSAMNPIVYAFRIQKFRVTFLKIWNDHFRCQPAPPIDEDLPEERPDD

CysLT1 (LTD4) (h) = target: T3, CysLT1 (LTD4) (h) (Homo sapiens, UniProt Q9Y271); format: binding; conditions: 1.0E-06 M
T3 construct: host or cells: CHO cells
T3 sequence (Q9Y271 1-337): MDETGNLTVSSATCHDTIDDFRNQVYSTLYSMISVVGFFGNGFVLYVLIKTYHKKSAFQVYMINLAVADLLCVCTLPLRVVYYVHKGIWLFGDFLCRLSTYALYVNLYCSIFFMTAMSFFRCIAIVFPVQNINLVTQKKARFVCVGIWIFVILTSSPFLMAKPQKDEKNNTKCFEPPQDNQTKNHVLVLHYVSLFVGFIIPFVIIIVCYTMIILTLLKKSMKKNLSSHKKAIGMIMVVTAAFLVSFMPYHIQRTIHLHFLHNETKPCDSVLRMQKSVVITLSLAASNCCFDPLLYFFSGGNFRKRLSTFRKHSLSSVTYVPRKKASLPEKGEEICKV

human TRPC5 (hTRPC5) = target: T4, human TRPC5 (hTRPC5) (Homo sapiens, UniProt Q9UL62); assay: Fluorometric calcium influx assay; format: cell-based; conditions: indicator-assisted calcium influx, 1 pM to 1 μM, n = 8
T4 construct: The cDNAs for various full-length ion channels were subcloned into pcDNA5/TO; expressed in transfected cells
T4 sequence (Q9UL62 whole entry): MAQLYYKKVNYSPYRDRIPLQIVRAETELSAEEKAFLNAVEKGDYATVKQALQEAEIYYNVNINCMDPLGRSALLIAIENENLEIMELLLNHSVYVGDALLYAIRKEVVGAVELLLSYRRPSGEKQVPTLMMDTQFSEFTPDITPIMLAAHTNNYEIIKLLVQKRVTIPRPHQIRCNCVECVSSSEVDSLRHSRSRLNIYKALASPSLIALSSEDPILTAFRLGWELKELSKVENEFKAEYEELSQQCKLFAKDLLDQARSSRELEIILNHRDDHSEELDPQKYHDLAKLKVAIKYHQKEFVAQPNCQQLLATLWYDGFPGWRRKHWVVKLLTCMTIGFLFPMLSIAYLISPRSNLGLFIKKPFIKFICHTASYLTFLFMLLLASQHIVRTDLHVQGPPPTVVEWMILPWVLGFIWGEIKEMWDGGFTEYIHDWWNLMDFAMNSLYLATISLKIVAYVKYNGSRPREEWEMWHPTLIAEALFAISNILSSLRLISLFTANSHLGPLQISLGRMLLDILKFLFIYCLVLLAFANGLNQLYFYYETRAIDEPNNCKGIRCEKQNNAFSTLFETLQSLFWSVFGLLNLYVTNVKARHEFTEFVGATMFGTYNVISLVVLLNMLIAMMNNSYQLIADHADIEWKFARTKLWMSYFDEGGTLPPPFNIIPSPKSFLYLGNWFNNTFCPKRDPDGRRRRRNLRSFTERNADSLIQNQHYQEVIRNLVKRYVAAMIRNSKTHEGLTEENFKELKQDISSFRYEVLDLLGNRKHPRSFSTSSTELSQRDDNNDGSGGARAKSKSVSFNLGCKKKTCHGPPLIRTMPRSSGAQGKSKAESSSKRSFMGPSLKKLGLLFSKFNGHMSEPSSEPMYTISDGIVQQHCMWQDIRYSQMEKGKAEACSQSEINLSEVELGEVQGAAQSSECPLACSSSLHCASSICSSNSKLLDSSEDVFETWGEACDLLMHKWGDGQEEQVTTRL

V2 (h) = target: T5, V2 (h) (Homo sapiens, UniProt P30518); format: binding; conditions: 1.0E-06 M
T5 construct: host or cells: CHO cells
T5 sequence (P30518 whole entry): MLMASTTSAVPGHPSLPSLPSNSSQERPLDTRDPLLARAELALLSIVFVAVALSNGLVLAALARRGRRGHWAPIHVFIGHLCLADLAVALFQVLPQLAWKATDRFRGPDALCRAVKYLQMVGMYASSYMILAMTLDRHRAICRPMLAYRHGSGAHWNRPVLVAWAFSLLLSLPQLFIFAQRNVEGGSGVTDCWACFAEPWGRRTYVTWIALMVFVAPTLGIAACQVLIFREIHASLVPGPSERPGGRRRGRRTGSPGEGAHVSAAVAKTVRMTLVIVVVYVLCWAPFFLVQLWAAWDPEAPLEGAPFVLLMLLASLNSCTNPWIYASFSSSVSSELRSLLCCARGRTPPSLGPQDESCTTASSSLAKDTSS

PDE3A (h) = PDE3A (h) (Homo sapiens, UniProt Q14432); assay: biochemical; conditions: 1.0E-06 M
Sequence of PDE3A (h) (Q14432 whole entry): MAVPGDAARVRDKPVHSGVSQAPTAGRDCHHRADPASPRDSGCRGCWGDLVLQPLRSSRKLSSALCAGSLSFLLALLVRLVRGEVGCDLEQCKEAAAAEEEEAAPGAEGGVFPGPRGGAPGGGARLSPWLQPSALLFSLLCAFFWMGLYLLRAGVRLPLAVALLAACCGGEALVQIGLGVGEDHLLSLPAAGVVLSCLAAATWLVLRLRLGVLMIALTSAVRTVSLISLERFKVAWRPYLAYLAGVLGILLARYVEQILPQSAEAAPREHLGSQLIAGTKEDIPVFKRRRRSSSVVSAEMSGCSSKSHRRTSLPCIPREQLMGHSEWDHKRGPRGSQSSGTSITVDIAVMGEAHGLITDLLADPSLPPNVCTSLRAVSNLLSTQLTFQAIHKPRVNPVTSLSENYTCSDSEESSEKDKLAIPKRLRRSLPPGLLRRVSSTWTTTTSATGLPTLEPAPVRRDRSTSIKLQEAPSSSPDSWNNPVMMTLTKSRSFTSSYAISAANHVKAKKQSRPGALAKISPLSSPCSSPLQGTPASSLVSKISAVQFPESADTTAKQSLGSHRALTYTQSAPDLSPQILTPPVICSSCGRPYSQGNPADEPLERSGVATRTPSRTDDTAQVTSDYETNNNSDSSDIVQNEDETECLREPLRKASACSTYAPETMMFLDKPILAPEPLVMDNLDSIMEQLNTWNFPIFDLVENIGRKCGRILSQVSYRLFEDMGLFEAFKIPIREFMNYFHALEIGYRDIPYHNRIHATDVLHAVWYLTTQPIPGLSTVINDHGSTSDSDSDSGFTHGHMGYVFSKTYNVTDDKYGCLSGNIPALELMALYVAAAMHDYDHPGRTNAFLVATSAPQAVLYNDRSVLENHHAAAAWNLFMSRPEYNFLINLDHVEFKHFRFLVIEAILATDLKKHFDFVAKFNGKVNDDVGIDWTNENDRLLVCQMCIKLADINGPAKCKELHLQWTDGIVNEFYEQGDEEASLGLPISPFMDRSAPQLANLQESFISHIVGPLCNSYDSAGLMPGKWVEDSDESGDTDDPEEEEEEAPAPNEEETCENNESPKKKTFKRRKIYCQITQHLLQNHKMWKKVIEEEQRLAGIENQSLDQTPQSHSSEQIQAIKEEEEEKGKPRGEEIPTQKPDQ

Cl- channel (GABA-gated) = format: binding, rat; conditions: 1.0E-06 M
H3 (h) = target: T6, H3 (h) (Homo sapiens, UniProt Q9Y5N1); format: binding
T6 construct: host or cells: CHO cells
T6 sequence (Q9Y5N1 whole entry): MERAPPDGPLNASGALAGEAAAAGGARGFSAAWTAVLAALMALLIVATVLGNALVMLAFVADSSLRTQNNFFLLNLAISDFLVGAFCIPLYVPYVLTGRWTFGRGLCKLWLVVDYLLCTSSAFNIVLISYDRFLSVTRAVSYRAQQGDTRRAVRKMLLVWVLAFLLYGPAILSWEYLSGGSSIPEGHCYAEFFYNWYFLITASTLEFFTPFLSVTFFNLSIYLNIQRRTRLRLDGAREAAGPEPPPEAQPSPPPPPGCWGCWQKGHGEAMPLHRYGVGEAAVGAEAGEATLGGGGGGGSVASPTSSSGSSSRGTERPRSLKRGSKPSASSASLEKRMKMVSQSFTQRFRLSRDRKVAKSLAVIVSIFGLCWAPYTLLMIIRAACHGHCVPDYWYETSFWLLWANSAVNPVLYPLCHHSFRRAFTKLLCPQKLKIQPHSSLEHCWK

[4] = Swiss Webster, mouse, iv, 1 mg/kg
[5] = Swiss Webster, mouse, po, 10 mg/kg
[6] = male, C57BL/6, mouse, iv, 1 mg/kg
[7] = male, C57BL/6, mouse, po, 10 mg/kg
[8] = 1.0E-06 M, read-out: % Inhibition Mean

Sequence of κ (KOP) (P34975 whole entry): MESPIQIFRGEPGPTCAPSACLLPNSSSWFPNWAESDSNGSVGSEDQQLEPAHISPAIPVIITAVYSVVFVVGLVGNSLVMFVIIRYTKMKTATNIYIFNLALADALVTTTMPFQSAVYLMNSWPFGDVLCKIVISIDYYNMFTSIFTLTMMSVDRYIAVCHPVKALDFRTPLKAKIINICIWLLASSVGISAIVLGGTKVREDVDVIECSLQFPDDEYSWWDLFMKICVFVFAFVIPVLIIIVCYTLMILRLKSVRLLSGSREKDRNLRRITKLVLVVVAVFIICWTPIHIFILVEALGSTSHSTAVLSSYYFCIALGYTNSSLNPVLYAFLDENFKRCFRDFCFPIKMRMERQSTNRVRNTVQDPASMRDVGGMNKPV

For `Cn1c(=O)n(CCCO)c(=O)c2c1nc(Oc1cccc(Cl)c1)n2Cc1ccc(Cl)cc1` [HC-070], the Vd (in vivo; [4]) was 2.2 L/kg, the clearance (in vivo; [4]) was 11 mL/min/kg and the half-life (in vivo; [4]) was 3.6 h. The Tmax (in vivo; [5]) was 1 h, the half-life (in vivo; [5]) was 2.7 h and the Vd (in vivo; [6]) was 1.5 L/kg. The clearance (in vivo; [6]) was 13 mL/min/kg, the concentration at 2 h (in vivo; male, C57BL/6, mouse, iv, 1 mg/kg, CBR (concentration in brain)) was 299 ± 11 nM and the concentration at 2 h (in vivo; male, C57BL/6, mouse, iv, 1 mg/kg, CPL (concentration in plasma)) was 339 ± 66 nM. For the same compound, the Cmax (in vivo; [7]) was 937 nM, the Tmax (in vivo; [7]) was 1 h and the concentration at 2 h (in vivo; male, C57BL/6, mouse, po, 10 mg/kg, CBR (concentration in brain)) was 525 ± 72 nM. The concentration at 2 h (in vivo; male, C57BL/6, mouse, po, 10 mg/kg, CPL (concentration in plasma)) was 583 ± 108 nM, the “effect on CCK-4 stimulated increase of postsynaptic currents” value ([1]; 20 nM, CCK-4 1 μM) was “pronounced attenuation of the CCK-4 related effect” and the “basal synaptic activity prior to CCK-4 addition” value ([1]; slices pretreated with 20 nM HC-070, n = 8) was 154±35 postsynaptic currents/minute. It also gave a fraction unbound (in vitro) of 0.004.

With `Cn1c(=O)n(CCCO)c(=O)c2c1nc(Oc1cccc(OC(F)(F)F)c1)n2Cc1ccc(Cl)cc1` [HC-608] the “% Inhibition 1st” value (PCP) was -9%, the “% Inhibition 2nd” value (PCP) was -0.1% and the “% Inhibition Mean” value (PCP) was -4.6%. It also gave an inhibition at 1 µM (κ (KOP); read-out: % Inhibition 1st) of -8.1%, an inhibition at 1 µM (κ (KOP); read-out: % Inhibition 2nd) of 1.1% and an inhibition at 1 µM (κ (KOP); read-out: % Inhibition Mean) of -3.5%. It also gave an inhibition at 1 µM (Y1 (h); read-out: % Inhibition 1st) of -12.8%, an inhibition at 1 µM (Y1 (h); read-out: % Inhibition 2nd) of -14.1% and an inhibition at 1 µM (Y1 (h); read-out: % Inhibition Mean) of -13.4%. It also gave an inhibition at 1 µM (5-HT1B; read-out: % Inhibition 1st) of -11%, an inhibition at 1 µM (5-HT1B; read-out: % Inhibition 2nd) of -9.4% and an inhibition at 1 µM (5-HT1B; read-out: % Inhibition Mean) of -10.2%. The inhibition at 1 µM (CaMK2α (h); read-out: % Inhibition 1st) was -4%, the inhibition at 1 µM (CaMK2α (h); read-out: % Inhibition 2nd) was 2.8% and the inhibition at 1 µM (CaMK2α (h); read-out: % Inhibition Mean) was -0.6%. The “% Inhibition 1st” value [2] was 2.3%, the “% Inhibition 2nd” value [2] was 14.5% and the “% Inhibition Mean” value [2] was 8.4%. The “% Inhibition 1st” value (rolipram) was -4.6%, the “% Inhibition 2nd” value (rolipram) was 0.5% and the “% Inhibition Mean” value (rolipram) was -2.1%. For the same compound, the “% Inhibition 1st” value [3] was 28%, the “% Inhibition 2nd” value [3] was 30.6% and the “% Inhibition Mean” value [3] was 29.3%. The inhibition at 1 µM (Abl kinase (h); read-out: % Inhibition 1st) was 11.4%, the inhibition at 1 µM (Abl kinase (h); read-out: % Inhibition 2nd) was 10.2% and the inhibition at 1 µM (Abl kinase (h); read-out: % Inhibition Mean) was 10.8%. For the same compound, the inhibition at 1 µM (A1 (h); 1.0E-06 M, read-out: % Inhibition 1st) was 22.5%, the inhibition at 1 µM (A1 (h); [8]) was 17.4% and the inhibition at 1 µM (A1 (h); read-out: % Inhibition 2nd) was 12.3%. The inhibition at 1 µM (CysLT1 (LTD4) (h); read-out: % Inhibition 1st) was 13.2%, the inhibition at 1 µM (CysLT1 (LTD4) (h); read-out: % Inhibition 2nd) was 3.4% and the inhibition at 1 µM (CysLT1 (LTD4) (h); read-out: % Inhibition Mean) was 8.3%. The IC50 (human TRPC5 (hTRPC5)) was 6.2 ± 0.5 nM, the inhibition at 1 µM (V2 (h); read-out: % Inhibition 1st) was 8.6% and the inhibition at 1 µM (V2 (h); read-out: % Inhibition 2nd) was 5.7%. The inhibition at 1 µM (V2 (h); read-out: % Inhibition Mean) was 7.1%, the inhibition at 1 µM (PDE3A (h); read-out: % Inhibition 1st) was 3.1% and the inhibition at 1 µM (PDE3A (h); read-out: % Inhibition 2nd) was 0.2%. For the same compound, the inhibition at 1 µM (PDE3A (h); read-out: % Inhibition Mean) was 1.7%, the “% Inhibition 1st” value (Cl- channel (GABA-gated)) was 24.7% and the “% Inhibition 2nd” value (Cl- channel (GABA-gated)) was 23.2%. The “% Inhibition Mean” value (Cl- channel (GABA-gated)) was 23.9%, the inhibition at 1 µM (H3 (h); 1.0E-06 M, read-out: % Inhibition 2nd) was -0.8% and the inhibition at 1 µM (H3 (h); [8]) was -13.4%. For the same compound, the inhibition at 1 µM (H3 (h); read-out: % Inhibition 1st) was -25.9%.

— paper PMC5791972 (PLoS ONE, 2018)
